Patent US20260364080A1, “PYRAZOLO-PYRIMIDINONE COMPOUNDS FOR USE IN METHODS OF INHIBITING WEE1 A KINASE” (Acrivon Therapeutics, Inc., priority 2023, published 2026)

What was measured:
[1] = molecular target: T1, Myt1 kinase (CDK1 Thr14 phosphorylation in ACHN renal cell carcinoma cells) (Homo sapiens, UniProt Q99640); experiment: AlphaLISA assay, Myt1 kinase target engagement (phospho-CDK1 Thr14) in ACHN cells; assay type: cell-based; details: ACHN cells (marked *); 4 h treatment
T1 construct: pCDK1 Thr14 AlphaLISA read-out
T1 sequence (Q99640 1-499): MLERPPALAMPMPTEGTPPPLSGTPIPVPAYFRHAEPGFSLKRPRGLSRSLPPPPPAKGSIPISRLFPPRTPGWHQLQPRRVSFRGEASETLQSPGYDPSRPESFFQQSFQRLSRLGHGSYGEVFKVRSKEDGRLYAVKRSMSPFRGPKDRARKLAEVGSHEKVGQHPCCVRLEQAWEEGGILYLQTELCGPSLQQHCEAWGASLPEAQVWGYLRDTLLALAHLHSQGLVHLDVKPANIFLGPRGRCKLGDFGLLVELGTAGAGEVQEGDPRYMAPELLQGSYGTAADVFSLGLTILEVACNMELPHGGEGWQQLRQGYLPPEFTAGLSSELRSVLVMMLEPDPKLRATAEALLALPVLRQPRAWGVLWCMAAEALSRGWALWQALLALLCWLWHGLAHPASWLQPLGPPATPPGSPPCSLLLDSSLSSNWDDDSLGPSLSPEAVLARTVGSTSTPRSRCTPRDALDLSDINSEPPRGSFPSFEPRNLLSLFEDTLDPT
Method: Each of an ACHN renal cell carcinoma cell line (ATCC) and a DAOY medulloblastoma cell line, and an A427 lung cancer line were cultured in Minimum Essential Medium Eagle supplemented with 10% fetal calf serum (Sigma), 1% Penicillin-Streptomycin and 10 mM HEPES buffer (HyClone). Cell cultures were kept in a humidified incubator at 37 °C and 5% CO2. Cells were routinely tested for Mycoplasma contamination.
For target engagement assessment of Myt1 kinase inhibition, quantification of Cdk1 phosphorylated on threonine 14 was detected using the AlphaLISA® SureFire® Ultra™ Human Phospho-CDK1 (Thr14) assay (Perkin Elmer). DAOY or ACHN cells were seeded into tissue culture treated 96-well plates (VWR) to a density of 10,000 or 20,000 cells per well respectively. 24 h post seeding cells were treated for 4 h with compounds at concentrations ranging from 7 to 5000 nM. Cells were washed with PBS and lysed in 50 μl AlphaLISA lysis buffer before freezing at −80 C. Ten ul of the lysate was transferred to 384 well plates and incubated with AlphaLISA donor and acceptor beads according to the manufacturer's instructions. Dose response curves and EC50 values were calculated and visualized using GraphPad Prism version 9. Target engagement for Myt1 kinase can also be measured using the same AlphaLISA assay in OVCAR3 cells, an ovarian cancer cell line. NIH:OVCAR-3 (OVCAR3) cells are cultured in RPMI-1640 medium supplemented with 0.01 mg/ml insulin, 20% FBS, 1% Penicillin-Streptomycin and 10 mM HEPES buffer. 14,000 cells per well are seeded into 96 well tissue culture plates in full medium. Twenty-four hours post seeding, cells are treated with compound for 4 hours at concentrations ranging from 0.017 nM to 1000 nM.

[2] = molecular target: T2, Myt1 kinase (recombinant PMYT-1) (Homo sapiens, UniProt Q99640); experiment: Myt1 kinase binding assay (LanthaScreen Eu Kinase Binding Assay); details: 3 nM tracer 178, 2.5 nM PMYT-1, 1 nM Eu-labeled antibody; read-out: Myt1 kinase Binding IC50
T2 construct: full length PMYT-1 was expressed by baculovirus in insect cells; purchased Invitrogen A30984; host or cells: insect cells (baculovirus)
T2 sequence (Q99640 1-499): T1 sequence (Q99640 1-499)
Outline: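 Compound binding to Myt1 kinase was assessed using the LanthaScreen Eu Kinase Binding Assay. This europium-based binding format was applied to quantify how strongly each compound bound to the Myt1 enzyme, and the binding affinity was reported for each compound as an IC50 value.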

[3] = molecular target: T3, Wee1A kinase (CDK1 Tyr15 phosphorylation in ACHN renal cell carcinoma cells) (Homo sapiens, UniProt P30291); experiment: High-content imaging of pCdk1 Y15, Wee1A kinase target engagement in ACHN cells; assay type: cell-based; details: 4 h treatment, nuclear positivity for pCdk1 Y15 vs DMSO control, read-out: CDK1 Tyr15 Phosphorylation EC50
T3 construct: pCDK1 Tyr15 immunofluorescence read-out
Outline: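 EC50 values come from the per-well fraction of cells with nuclear pCdk1 Y15 staining, normalised to DMSO control, by automated immunofluorescence imaging. Cells were ACHN renal carcinoma, treated 4 h with compound at 7–5,000 nM or 0.3–200 nM.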

[4] = molecular target: T4, recombinant human Wee1A kinase (Homo sapiens, UniProt P30291); experiment: Wee1A kinase binding assay (LanthaScreen Eu time-resolved FRET); details: 30 nM tracer 178, 5 nM Wee1A kinase, 2 nM Eu-labeled antibody; 60 minutes at room temperature; read-out: Wee1A kinase Binding IC50
T4 construct: full length Wee1 kinase was expressed by baculovirus in insect cells; purchased Invitrogen PV3817; host or cells: insect cells (baculovirus)
Outline: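 Full-length, baculovirus-expressed GST-tagged Wee1A (5 nM) was mixed with 2 nM Eu-anti-GST antibody, 30 nM kinase tracer 178 and compound (1% DMSO). Buffer was 50 mM HEPES pH 7.5, 10 mM MgCl2, 1 mM EGTA, 0.01% Brij-35, incubated 60 min at room temperature. TR-FRET 665/615 nm emission ratios from duplicates were curve-fitted.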

ACHN cells = experiment: Cell Titer Glo viability assay, ACHN cells; assay type: cell-based; details: Homo sapiens, 144 h, absolute EC50
Outline: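 Cells grown in MEM with 10% FCS were seeded at 500 (A427), 400 (ACHN) or 250 (DAOY) per well and treated the next day with compound at 17 to 10 000 nM. Viability relative to untreated control was read at 144 h by CellTiter-Glo 2.0.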

[5] = molecular target: T5, Myt1 kinase (CDK1 Thr14 phosphorylation in DAOY medulloblastoma cells) (Homo sapiens, UniProt Q99640); experiment: AlphaLISA assay, Myt1 kinase target engagement (phospho-CDK1 Thr14) in DAOY cells; assay type: cell-based; details: 4 h treatment, read-out: CDK1 Thr14 Phosphorylation EC50
T5 construct: pCDK1 Thr14 AlphaLISA read-out
T5 sequence (Q99640 1-499): T1 sequence (Q99640 1-499)
Outline: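 Cells seeded at 10,000 (DAOY) or 20,000 (ACHN) per well, treated 24 h later for 4 h with compound at 7–5000 nM. Lysates analysed by AlphaLISA SureFire Ultra phospho-CDK1 (Thr14) with donor/acceptor beads; EC50 from dose-response curves.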

T3 sequence (P30291 whole entry): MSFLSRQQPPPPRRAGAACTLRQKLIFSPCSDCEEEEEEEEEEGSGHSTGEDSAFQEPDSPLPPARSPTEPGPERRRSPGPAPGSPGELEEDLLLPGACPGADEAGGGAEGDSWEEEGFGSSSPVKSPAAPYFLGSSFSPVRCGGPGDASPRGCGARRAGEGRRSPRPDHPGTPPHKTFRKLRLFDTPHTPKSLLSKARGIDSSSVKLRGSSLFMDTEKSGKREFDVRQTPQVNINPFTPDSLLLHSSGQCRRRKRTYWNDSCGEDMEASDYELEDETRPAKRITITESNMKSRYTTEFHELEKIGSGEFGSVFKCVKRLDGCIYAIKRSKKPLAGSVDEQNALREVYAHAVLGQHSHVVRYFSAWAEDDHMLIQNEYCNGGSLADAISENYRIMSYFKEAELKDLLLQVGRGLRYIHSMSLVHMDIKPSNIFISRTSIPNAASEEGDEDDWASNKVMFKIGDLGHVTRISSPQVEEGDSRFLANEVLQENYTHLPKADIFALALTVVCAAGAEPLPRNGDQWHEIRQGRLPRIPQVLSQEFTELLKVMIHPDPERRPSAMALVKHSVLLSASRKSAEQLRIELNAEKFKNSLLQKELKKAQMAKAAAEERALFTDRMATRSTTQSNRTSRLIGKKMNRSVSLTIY
T4 sequence (P30291 whole entry): as above

| EC50 [1] | IC50 [2] | EC50 [3] | IC50 [4] | EC50 (ACHN cells) | EC50 [5] | Structure (SMILES) |
| --- | --- | --- | --- | --- | --- | --- |
| 200 to 500 nM | < 20 nM | < 100 nM | < 10 nM | ≤ 100 nM | – | C=CCn1c(=O)c2cnc(Nc3ccc4c(cnn4C)c3)nc2n1-c1cccc(OC2CCCN(C)CC2)n1 (single isomer, unassigned) [Compound 373] |
| 500 to 1000 nM | 20 to 100 nM | < 100 nM | < 10 nM | – | – | C=CCn1c(=O)c2cnc(Nc3ccc4c(cnn4C)c3)nc2n1-c1cccc(OC2CCCN(C)CC2)n1 (single isomer, unassigned) [Compound 374] |
| – | 20 to 100 nM | 100 to 500 nM | < 10 nM | 500 to 1000 nM | > 1000 nM | C=CCn1c(=O)c2cnc(Nc3ccc4c(c3)ncn4C)nc2n1-c1cccc(OC2CCNCC2)n1 [Compound 319, 2-allyl-6-((1-methyl-1H-benzo[d]imidazol-5-yl)amino)-1-(6-(piperidin-4-yloxy)pyridin-2-yl)-1,2-dihydro-3H-pyrazolo[3,4-d]pyrimidin-3-one] |
| – | 20 to 100 nM | < 100 nM | < 10 nM | ≤ 100 nM | 500 to 1000 nM | C=CCn1c(=O)c2cnc(Nc3ccc4c(cnn4C)c3)nc2n1-c1cccc(OC2CCN(CC)CC2)n1 [Compound 321, 2-allyl-1-[6-(1-ethyl-4-piperidyloxy)-2-pyridyl]-6-(1-methyl-1H-indazol-5-ylamino)-1,2-dihydro-3H-1,2,5,7-tetraazainden-3-one] |
| 200 to 500 nM | 20 to 100 nM | < 100 nM | < 10 nM | – | – | C=CCn1c(=O)c2cnc(Nc3ccc4ccncc4c3)nc2n1-c1cccc(OC2CCN(C)CC2)n1 [Compound 326, 2-allyl-6-(7-isoquinolylamino)-1-[6-(1-methyl-4-piperidyloxy)-2-pyridyl]-1,2-dihydro-3H-1,2,5,7-tetraazainden-3-one] |
| < 200 nM | < 20 nM | < 100 nM | – | ≤ 100 nM | – | [2H]C([2H])([2H])N1CCC(Oc2cccc(-n3c4nc(Nc5ccc6c(cnn6C(C)C)c5)ncc4c(=O)n3CC=C)n2)CC1 [Compound 354, 2-allyl-6-(1-isopropyl-1H-indazol-5-ylamino)-1-(6-{1-[(^2H3)methyl]-4-piperidyloxy}-2-pyridyl)-1,2-dihydro-3H-1,2,5,7-tetraazainden-3-one] |
| 200 to 500 nM | < 20 nM | < 100 nM | < 10 nM | – | – | C=CCn1c(=O)c2cnc(Nc3ccc4[nH]nc(C)c4c3)nc2n1-c1cccc(OC2CCN(C)CC2)n1 [Compound 355, 2-allyl-6-((3-methyl-1H-indazol-5-yl)amino)-1-(6-((1-methylpiperidin-4-yl)oxy)pyridin-2-yl)-1,2-dihydro-3H-pyrazolo[3,4-d]pyrimidin-3-one] |
| 200 to 500 nM | – | < 100 nM | < 10 nM | ≤ 100 nM | – | C=CCn1c(=O)c2cnc(Nc3ccc4c(cnn4C)c3)nc2n1-c1cccc(OC2CCCN(C)CC2)n1 (centres unmarked) [Compound 361] |
| 200 to 500 nM | < 20 nM | < 100 nM | < 10 nM | – | – | C=CCn1c(=O)c2cnc(Nc3ccc(Br)cc3)nc2n1-c1cccc(OC2CCN(C)CC2)n1 [Compound 370, 2-allyl-6-(p-bromophenylamino)-1-[6-(1-methyl-4-piperidyloxy)-2-pyridyl]-1,2-dihydro-3H-1,2,5,7-tetraazainden-3-one] |
| 500 to 1000 nM | 20 to 100 nM | – | < 10 nM | – | – | [2H]C([2H])([2H])N1CCC(Oc2nccc(-n3c4nc(Nc5ccc6c(cnn6C)c5)ncc4c(=O)n3CC=C)n2)CC1 [Compound 383, 2-allyl-6-(1-methyl-1H-indazol-5-ylamino)-1-(2-{1-[(^2H3)methyl]-4-piperidyloxy}-4-pyrimidinyl)-1,2-dihydro-3H-1,2,5,7-tetraazainden-3-one] |
| < 200 nM | 20 to 100 nM | < 100 nM | < 10 nM | – | – | C=CCn1c(=O)c2cnc(Nc3ccc4cnn(C)c4c3)nc2n1-c1cccc(OC2CCN(C)CC2)n1 [Compound 389, 2-allyl-6-((1-methyl-1H-indazol-6-yl)amino)-1-(6-((1-methylpiperidin-4-yl)oxy)pyridin-2-yl)-1,2-dihydro-3H-pyrazolo[3,4-d]pyrimidin-3-one] |
| > 1000 nM | < 20 nM | < 100 nM | < 10 nM | – | – | C=CCn1c(=O)c2cnc(Nc3ccc4nn(C(C)(C)C)cc4c3)nc2n1-c1cccc(OC2CCNCC2)n1 [Compound 395, 2-allyl-6-((2-(tert-butyl)-2H-indazol-5-yl)amino)-1-(6-(piperidin-4-yloxy)pyridin-2-yl)-1,2-dihydro-3H-pyrazolo[3,4-d]pyrimidin-3-one] |
| < 200 nM | < 20 nM | < 100 nM | < 10 nM | – | – | C=CCn1c(=O)c2cnc(Nc3ccc(OCCF)nc3)nc2n1-c1cccc(OC2CCN(C)CC2)n1 [Compound 399, 2-allyl-6-((6-(2-fluoroethoxy)pyridin-3-yl)amino)-1-(6-((1-methylpiperidin-4-yl)oxy)pyridin-2-yl)-1,2-dihydro-3H-pyrazolo[3,4-d]pyrimidin-3-one] |
| < 200 nM | < 20 nM | < 100 nM | < 10 nM | – | – | C=CCn1c(=O)c2cnc(Nc3ccc4c(cnn4C(C)C)c3)nc2n1-c1ccnc(OC2CCN(C)CC2)n1 [Compound 401, 2-allyl-6-((1-isopropyl-1H-indazol-5-yl)amino)-1-(2-((1-methylpiperidin-4-yl)oxy)pyrimidin-4-yl)-1,2-dihydro-3H-pyrazolo[3,4-d]pyrimidin-3-one] |
| < 200 nM | < 20 nM | < 100 nM | < 10 nM | – | – | C=CCn1c(=O)c2cnc(Nc3cnc4c(cnn4C(C)C)c3)nc2n1-c1cccc(OC2CCN(C)CC2)n1 [Compound 406, 2-allyl-6-((1-isopropyl-1H-pyrazolo[3,4-b]pyridin-5-yl)amino)-1-(6-((1-methylpiperidin-4-yl)oxy)pyridin-2-yl)-1,2-dihydro-3H-pyrazolo[3,4-d]pyrimidin-3-one] |
